Active and inactive are the calls of the source. The calls are words filed in the database; no cut-off is given here.
Key:
HUVEC [1] = experiment: Inhibition of protein tyrosine kinase in HUVEC lysates at 100 ug/ml after 2 hrs; format: cell-based; details: Homo sapiens
HUVEC [2] = experiment: Inhibition of protein tyrosine kinase in HUVEC lysates at 10 ug/ml after 2 hrs; format: cell-based; details: Homo sapiens
HUVEC [3] = experiment: Inhibition of protein tyrosine kinase in HUVEC lysates at 1 ug/ml after 2 hrs; format: cell-based; details: Homo sapiens
[4] = Inhibition of protein tyrosine kinase in HUVEC lysates after 2 hrs; format: cell-based, Homo sapiens
HUVEC [5] = experiment: Antiproliferative activity against HUVEC after 72 hrs by MTT assay; format: cell-based; details: Homo sapiens
HeLa = experiment: Cytotoxicity against human HeLa cells after 72 hrs by WST8 assay; format: functional, cell-based
NHDF [6] = experiment: Cytotoxicity against NHDF after 72 hrs by WST8 assay; format: cell-based; details: Homo sapiens
HUVEC [7] = experiment: Inhibition of VEGF-induced HUVEC migration after 22 hrs by microscopy; format: functional, cell-based; details: Homo sapiens
HUVEC [8] = experiment: Inhibition of VEGF-induced HUVEC migration at 10 ug/ml after 22 hrs by microscopy; format: functional; details: Homo sapiens
HUVEC [9] = experiment: Inhibition of VEGF-induced HUVEC migration at 1 ug/ml after 22 hrs by microscopy; format: functional; details: Homo sapiens
HUVEC [10] = experiment: Inhibition of VEGF-induced HUVEC migration at 0.1 ug/ml after 22 hrs by microscopy; format: functional; details: Homo sapiens
HUVEC [11] = experiment: Antiangiogenic activity against HUVEC assessed as inhibition VEGF-stimulated tubule formation at 10 ug/ml after 11 days by microscopy; format: functional, cell-based; details: Homo sapiens
NHDF [12] = experiment: Antiangiogenic activity against NHDF assessed as inhibition VEGF-stimulated tubule formation at 10 ug/ml after 11 days by microscopy; format: functional, cell-based; details: Homo sapiens
P388 [13] = experiment: Antitumor activity against mouse P388 cells xenografted in mouse at 20 mg/kg; format: functional, organism-based; design: dose 20 mg/kg
P388 [14] = experiment: Antitumor activity against mouse P388 cells xenografted in mouse; format: functional
Mus musculus [15] = species on record: Mus musculus; experiment: Toxicity in mouse assessed as reduction of body weight; format: organism-based; details: in vivo
Mus musculus [16] = experiment: Toxicity in mouse at 60 mg/kg; format: organism-based; design: dose 60 mg/kg; details: in vivo

| Compound | inhibition (HUVEC [1]) | inhibition (HUVEC [2]) | inhibition (HUVEC [3]) | IC50 [4] | IC50 (HUVEC [5]) | IC50 (HUVEC [7]) | inhibition at 10 µg/mL (HUVEC [8]) | inhibition at 1 µg/mL (HUVEC [9]) | inhibition at 0.1 µg/mL (HUVEC [10]) | inhibition (HUVEC [11]) | inhibition (NHDF [12]) | Activity (P388 [14]) | Activity (Mus musculus [15]) | further results |
| --- | --- | --- | --- | --- | --- | --- | --- | --- | --- | --- | --- | --- | --- | --- |
| CC(=O)Cc1cc(=O)c2c(O)c3c(O)cc(O)c(-c4c(O)cc(O)c5c(O)c6c(=O)cc(CC(C)=O)oc6cc45)c3cc2o1 | 66.2% | 38.3% | 11% | 42.1 µM | 17.4 µM | 1.09 µM | 86.7% | 57.8% | 20% | Active | Active | – | – | IC50 (HeLa): 209 µM; IC50 (NHDF [6]): > 500 µM |
| C[C@H]1Oc2cc3c(-c4c(O)cc(O)c5c(O)c6c(cc45)O[C@H](C)[C@@H](C)C6=O)c(O)cc(O)c3c(O)c2C(=O)[C@@H]1C | – | – | – | – | – | – | – | – | – | – | – | – | – | Activity (P388 [13]): Active |
| C[C@@H]1Oc2cc3c(-c4c(O)cc(O)c5c(O)c6c(cc45)O[C@H](C)[C@@H](C)C6=O)c(O)cc(O)c3c(O)c2C(=O)[C@@H]1C [CHAETOCHROMIN B] | – | – | – | – | – | – | – | – | – | – | – | Active | Toxic | – |
| CC1CC(=O)c2c(cc3c(-c4c(O)cc(O)c5c(O)c6c(cc45)O[C@H](C)[C@@H](C)C6=O)c(O)cc(O)c3c2O)O1 (stereo not given in full) [CHAETOCHROMIN C] | – | – | – | – | – | – | – | – | – | – | – | Active | Toxic | – |
| Cc1oc2cc3c(-c4c(O)cc(O)c5c(O)c6c(cc45)O[C@@H](C)[C@H](C)C6=O)c(O)cc(O)c3c(O)c2c(=O)c1C [CHAETOCHROMIN D] | – | – | – | – | – | – | – | – | – | – | – | Active | Toxic | – |
| CC(=O)Cc1cc(=O)c2c(O)c3c(O)cc(O)c(-c4c(O)cc(O)c5c(O)c6c(=O)cc(CC(C)O)oc6cc45)c3cc2o1 (stereo not given) [HYPOCHROMIN A] | 73.4% | 21.9% | 0% | 58.7 µM | 50 µM | 0.87 µM | 100% | 62.2% | 28.9% | Active | Active | – | – | – |
| CC(=O)Cc1cc(=O)c2c(O)c3c(O)cc(O)c(-c4c(O)cc(O)c5c(O)c6c(=O)cc(C)oc6cc45)c3cc2o1 [HYPOCHROMIN B] | 72.4% | 50% | 12.4% | 18 µM | 13.1 µM | 1.51 µM | 95.6% | 53.3% | 33.3% | Active | Active | – | – | – |
| Cc1cc(=O)c2c(O)c3c(O)cc(O)c(-c4c(O)cc(O)c5c(O)c6c(=O)cc(C)oc6cc45)c3cc2o1 [USTILAGINOIDIN A] | – | – | – | – | – | – | – | – | – | – | – | – | – | Activity (Mus musculus [16]): Toxic |
| Cc1cc(=O)c2c(O)c3c(O)cc(O)c(-c4c(O)cc(O)c5c(O)c6c(cc45)OC(C)CC6=O)c3cc2o1 (stereo not given) [USTILAGINOIDIN G] | – | – | – | – | – | – | – | – | – | – | – | Active | Toxic | – |

Source: ChEMBL document CHEMBL1157075, “Antiangiogenic metabolites from a marine-derived fungus, Hypocrea vinosa” (J Nat Prod, 2010)
